{"source": "patent EP3134349B1", "about": "(priority 2014, dated 2015)", "experiment": "Water solubility by batch tests at room temperature (saturated solution, headspace GC)", "assay_type": "physicochemical", "procedure": "In particular, in a vial fully filled with distilled water, a volume of pure compound (alone or mixed) in an amount sufficient for obtaining a well detectable precipitate and thus a saturated solution was injected. In order to quantify the solubilized fraction of the compound, the saturated solution was analyzed through gas chromatography of the headspace.", "data": [{"smiles": "ClC(Cl)C(Cl)Cl", "note": "[1,1,2,2-TeCA, 1,1,2,2-Tetrachloroethane]", "values": [{"measurement": "Experimental solubility", "setting": "pure compound in distilled water", "result": "2.99 ± 0.18", "unit": "gL^-1"}, {"measurement": "solubility", "setting": "thermodynamic from solid, mixture of the two compounds 50% V/V, distilled water, no unit printed in this row (other rows gL^-1), read-out: Mixture 50% V/V (experimental water solubility of the component)", "result": "1470 ± 90", "unit": "µg/mL"}]}]}
